Holding throughout (assay type): cell-based
In test [1] the test system is Staphylococcus aureus ATCC 6538 DR. Description: button assay, antibacterial activity. Conditions: for MIC: Staphylococcus aureus, ATCC6538, 24 h, read-out: Antibacterial Activity S.aureus, minimum inhibitory concentration. The protocol: (§1) In the test program, the minimum inhibitory concentrations of the respective test compounds against various Gram positive and Gram negative bacteria were determined, employing the "button assay" method. The test organisms utilized were standard cultures of Staphylococcus aureus ATCC 6538 DR, a penicillin resistant Gram positive bacterium; Bacillus subtilis ATCC 9525, a spore-forming Gram positive bacillus; and Salmonella typhosa ATCC 6539, a Gram negative bacterium.
(§2) In the tests the respective compounds were dissolved in a suitable solvent, usually acetone or dimethylsulfoxide, to give solutions with known concentrations of active material. The highest concentration was ordinarily 1000 ppm (parts per million) [0.1%], and dilutions were made in suitable steps down to 1 ppm. Penicillin test buttons of filter paper having a diameter of 13 mm (socalled "Peniassay" buttons) were added to each solution within a test tube and left submerged for five minutes. They were then removed and left to dry on paper towels under sterile conditions. A laminar flow sterile cabinet equipped with ultraviolet lamps operating under positive air pressure was utilized for this purpose.
(§3) An 18-24 hour old nutrient broth culture (standard 1.5% nutrient agar) prepared in conventional manner from a slant and having passed through at least three consecutive daily transfers was used for inoculation. Melted and cooled sterile agar (45° C) was inoculated with the respective broth cultures by addition of 20 ml broth per liter of agar. The agar was then dispensed into Petri dishes (20 ml per plate) under sterile conditions and allowed to harden.
(§4) The test buttons were placed on the surface of the hardened agar and the plates incubated for 24 hours at 37° C. Where, on inspection, a clear zone of inhibition appeared around the button, inhibition of growth was presumed. Where growth touched the button there was no inhibition. For each of the test compounds, the lowest concentration showing a clear zone is reported as the inhibitory concentration in the following table. […]

The test system of test [2] is Salmonella typhosa ATCC 6539. In words: button assay, antibacterial activity. The settings on record: for MIC: Salmonella enterica, read-out: Antibacterial Activity S.typhosa, minimum inhibitory concentration. The protocol: as §1
The highest concentration was ordinarily 1000 ppm (parts per million) [0.1%], and dilutions were made in suitable steps down to 1 ppm. Penicillin test buttons of filter paper having a diameter of 13 mm (socalled "Peniassay" buttons) were added to each solution within a test tube and left submerged for five minutes. They were then removed and left to dry on paper towels under sterile conditions. A laminar flow sterile cabinet equipped with ultraviolet lamps operating under positive air pressure was utilized for this purpose.
as §3, §4

For test [3], the system named is Aspergillus niger ATCC 6257. In words: agar incorporation test, antifungal activity. The settings on record: lowest concentration showing no growth or sporulation, four days at 28° C; for MIC: Aspergillus niger, ATCC6257, 96 h, read-out: Antifungal Activity A. niger, minimum inhibitory concentration. As for the experimental part: The anti-fungal activity of the test compounds was determined employing the "agar incorporation" technique, utilizing spores from Aspergillus niger ATCC 6257 as a representative organism. Test solutions were prepared as described above in acetone or dimethylsulfoxide. A source of carbon agar such as Mycophil Agar was used. The agar was melted and cooled and placed in a constant temperature water bath at 45° C + 3° C. About 13-14 ml of the agar was then poured into a sterile Petri dish, the required amount of test solution to give the desired concentration immediately added thereto, and the dish rotated and swirled by hand to obtain a uniform mixture before the agar hardened.
The hardened plates were inoculated with the test organism by fishing spores from a 7-14 day old slant with the inocculating needle and spotting the spores on the plates, usually in several places. The inoculated plates were incubated for four days in an incubator maintained at 28° C +2° C and with a relative humidity of 95%+.
The lowest concentration of each test compound showing no growth or sporulation of the test organism was taken as the minimum inhibitory concentration and is reported in the following tabulation.
(§5) The button assay and agar incorporation tests were also utilized to determine the corresponding inhibitory concentrations of various control materials, viz., the following well known commercial antimicrobials and fungicides: hexachlorophene, tribromosalicylanilide, trichlorocarbanilide,Captan (N-(trichloromethylthio)4cyclohexene-1,2-dicarboximide) and Zineb (zinc ethylenebis[dithiocarbamate]). The minimum inhibitory concentration of each of the various control materials against the respective organisms is indicated in Table IV below: […]

For test [4], the system named is Bacillus subtilis ATCC 9525. In words: button assay, antibacterial activity. Conditions: 24 hours at 37° C; for MIC: Bacillus subtilis, ATCC9525, lowest concentration showing a clear zone of inhibition, read-out: Antibacterial Activity B.subtilis, minimum inhibitory concentration. As for the experimental part: as §1, §2, §3
The test buttons were placed on the surface of the hardened agar and the plates incubated for 24 hours at 37° C. Where, on inspection, a clear zone of inhibition appeared around the button, inhibition of growth was presumed. Where growth touched the button there was no inhibition. For each of the test compounds, the lowest concentration showing a clear zone is reported as the inhibitory concentration in the following table.
as §5

The mark [5] stands for this setting: button assay, lowest concentration showing a clear zone of inhibition, 24 hours at 37° C.

SMILES strings stand for the structures. Values after ≈ are worked out from the molar mass of the structure shown. Read-outs that look alike come from different tables or passages of the source.

On to `COc1ccc(OC)c(S(=O)(=O)Nc2ccc(S(=O)(=O)C=CC#N)cc2)c1` [Example 29.2, 3-[4-(2,5-dimethoxybenzenesulfonamido)benzenesulfonyl]acrylonitrile], for which the MIC is 20 µg/mL (≈ 49 µM) in test [1], 50 µg/mL (≈ 122 µM) in test [2] (24 h), 1000 µg/mL (≈ 2450 µM) in test [3] and 20 µg/mL (≈ 49 µM) in test [4].

Regarding `N#CC=CS(=O)(=O)c1ccc(NS(=O)(=O)c2ccc(C3=CC3(Cl)Cl)cc2)cc1` [Example 32, 3-[4-(4-dichlorocarbostyrenesulfonamido)benzenesulfonyl]acrylonitrile], the MIC in test [1] is 5 µg/mL (≈ 11 µM); in test [2] (24 h) it was 5 µg/mL (≈ 11 µM); in test [3], 1000 µg/mL (≈ 2200 µM); in test [4] it was 5 µg/mL (≈ 11 µM).

Turning to `N#CC=CS(=O)(=O)c1ccc(NS(=O)(=O)c2ccccc2)cc1` [Example 11, 3-(4-benzene-sulfonamidobenzenesulfonyl)acrylonitrile], the MIC in test [1] was 20 µg/mL (≈ 57.4 µM); in test [2] (24 h), 50 µg/mL (≈ 144 µM); in test [3], over 1000 µg/mL; in test [4], 50 µg/mL (≈ 144 µM).

Consider `CS(=O)(=O)Nc1ccc(S(=O)(=O)C=CC#N)cc1` [Example 1, 3-(4-methanesulfonylamidobenzenesulfonyl)acrylonitrile], for which the MIC in test [1] was 300 µg/mL (≈ 1050 µM); in test [2] (24 h) it was 1000 µg/mL (≈ 3490 µM); in test [3], over 1000 µg/mL; in test [4] it was 100 µg/mL (≈ 349 µM).

`N#CC=CS(=O)(=O)c1ccc(N=S=O)cc1` [Example 44, 3-(4-sulfinylimidobenzenesulfonyl)acrylonitrile]: the MIC in test [1] came out at 20 µg/mL (≈ 78.6 µM); in test [2] (24 h) it was 10 µg/mL (≈ 39.3 µM); in test [3], 300 µg/mL (≈ 1180 µM); in test [4] it was 10 µg/mL (≈ 39.3 µM).

With `CCCCCCCCCCCCCCCCS(=O)(=O)Nc1ccc(S(=O)(=O)C=CC#N)cc1` [Example 4, 3-([…])ACRYLONITRILE], the MIC in test [1] amounted to 20 µg/mL (≈ 40.3 µM); in test [2] (24 h), 50 µg/mL (≈ 101 µM); in test [3], 500 µg/mL (≈ 1010 µM); in test [4] it was 20 µg/mL (≈ 40.3 µM).

As to `CC(=O)Nc1ccc(S(=O)(=O)C=CC#N)cc1` [3-(4-acetamidobenzenesulfonyl)acrylonitrile, reference compound], the MIC is 50 µg/mL (≈ 200 µM) in test [1], 20 µg/mL (≈ 79.9 µM) in test [2] (24 h), over 1000 µg/mL in test [3] and 20 µg/mL (≈ 79.9 µM) in test [4].

Take `S=C([S-])NCCNC(=S)[S-].[Zn+2]` [Zineb, zinc ethylenebis[dithiocarbamate], reference compound]: the MIC in test [1] was 300 µg/mL; in test [2] (setting [5]), over 10000 µg/mL; in test [3] it was over 1000 µg/mL; in test [4], 300 µg/mL.

Consider `COc1ccc(S(=O)(=O)Nc2ccc(S(=O)(=O)C=CC#N)cc2)cc1` [Example 28, 3-[4-(4-methoxybenzenesulfonamido)benzenesulfonyl] acrylonitrile], for which the MIC in test [1] is 1 µg/mL (≈ 2.64 µM); in test [2] (24 h) it was 5 µg/mL (≈ 13.2 µM); in test [3], over 1000 µg/mL; in test [4], 10 µg/mL (≈ 26.4 µM).

As to `N#CC=CS(=O)(=O)c1ccc(NS(=O)(=O)c2ccc([N+](=O)[O-])cc2[N+](=O)[O-])cc1` [Example 23.1, 3-[4-(2,4-dinitrobenzenesulfonamido)benzenesulfonyl]acrylonitrile], the MIC in test [1] is 5 µg/mL (≈ 11.4 µM); in test [2] (setting [5]), 50 µg/mL (≈ 114 µM); in test [3], 100 µg/mL (≈ 228 µM); in test [4], 50 µg/mL (≈ 114 µM).

Consider `CC(=O)Nc1ccc(S(=O)(=O)Nc2ccc(S(=O)(=O)C=CC#N)cc2)cc1` [Example 30, 3-[4-(4-[…])BENZENESULFONYL]ACRYLONITRILE], for which the MIC in test [1] was 50 µg/mL (≈ 123 µM); in test [2] (24 h) it was 50 µg/mL (≈ 123 µM); in test [3] it was over 1000 µg/mL; in test [4] it was 50 µg/mL (≈ 123 µM).

As to `CN(C)P(=O)(Nc1ccc(S(=O)(=O)C=CC#N)cc1)N(C)C` [Example 51, bis-dimethylamido-4-(2-cyanoethenesulfonyl)anilidophosphine oxide], the MIC in test [1] worked out at 20 µg/mL (≈ 58.4 µM); in test [2] (24 h) it was 10 µg/mL (≈ 29.2 µM); in test [3] it was 100 µg/mL (≈ 292 µM); in test [4], 20 µg/mL (≈ 58.4 µM).

As to `N#CC=CS(=O)(=O)c1ccc(NC(=O)c2cccc(S(=O)(=O)Nc3ccc(S(=O)(=O)C=CC#N)cc3)c2)cc1` [Example 31, N'-4-(2-cyanoethenesulfonyl)phenylN"-3-(2-cyanoethenesulfonyl)phenylsulfamoylbenzamide], the MIC in test [1] was determined as 20 µg/mL (≈ 34.3 µM); in test [2] (24 h), 20 µg/mL (≈ 34.3 µM); in test [3], 100 µg/mL (≈ 172 µM); in test [4], 20 µg/mL (≈ 34.3 µM).

Regarding `CCOC(=O)c1ccc(S(=O)(=O)Nc2ccc(S(=O)(=O)C=CC#N)cc2)cc1` [Example 27, 3-[4-(4-[…])BENZENESULFONYL]ACRYLONITRILE], the MIC in test [1] came to 10 µg/mL (≈ 23.8 µM); in test [2] (24 h) it was 10 µg/mL (≈ 23.8 µM); in test [3] it was 100 µg/mL (≈ 238 µM); in test [4] it was 20 µg/mL (≈ 47.6 µM).

As to `Cc1ccc(S(=O)(=O)C=CC#N)cc1NS(=O)(=O)c1ccccc1` [Example 12, 3-(3-benzenesulfonamido-4-methylbenzenesulfonyl)acrylonitrile], the MIC in test [1] was 100 µg/mL (≈ 276 µM); in test [2] (24 h), 100 µg/mL (≈ 276 µM); in test [3], over 1000 µg/mL; in test [4], 100 µg/mL (≈ 276 µM).

With `Cc1ccccc1S(=O)(=O)Nc1ccc(S(=O)(=O)C=CC#N)cc1` [Example 16, 3-[4-(2-METHYLBENZENESULFONAMIDO)BENZENESULFONYL]ACRYLONITRILE], the MIC was 20 µg/mL (≈ 55.2 µM) in test [1], 20 µg/mL (≈ 55.2 µM) in test [2] (24 h), over 1000 µg/mL in test [3] and 20 µg/mL (≈ 55.2 µM) in test [4].

For `N#CC=CS(=O)(=O)c1ccc(N)cc1` [3-(4-aminobenzenesulfonyl)acrylonitrile, reference compound], the MIC was 20 µg/mL (≈ 96 µM) in test [1], 20 µg/mL (≈ 96 µM) in test [2] (24 h), 300 µg/mL (≈ 1440 µM) in test [3] and 20 µg/mL (≈ 96 µM) in test [4].

For the compound `O=C(Nc1ccc(Br)cc1)c1cc(Br)cc(Br)c1O` [tribromosalicylanilide, reference compound], in test [1] (setting [5]), the “Antibacterial Activity S.aureus, minimum inhibitory concentration” value stood at 100 ppm. In addition, the “Antibacterial Activity S.typhosa, minimum inhibitory concentration” value in test [2] (setting [5]) was 50 ppm. For the same compound, the “Antifungal Activity A. niger, minimum inhibitory concentration” value in test [3] was > 1,000 ppm. Besides, in test [4] (lowest concentration showing a clear zone of inhibition), the “Antibacterial Activity B.subtilis, minimum inhibitory concentration” value is listed as 100 ppm.

For `CCCCCCCCCCCCc1ccc(S(=O)(=O)Nc2ccc(S(=O)(=O)C=CC#N)cc2)cc1` [Example 17], the MIC in test [1] is 5 µg/mL (≈ 9.68 µM); in test [2] (24 h) it was 10 µg/mL (≈ 19.4 µM); in test [3], 300 µg/mL (≈ 581 µM); in test [4], 10 µg/mL (≈ 19.4 µM).

Turning to `CCCCS(=O)(=O)Nc1ccc(S(=O)(=O)C=CC#N)cc1` [Example 3, 3-(4-butanesulfonamidobenzenesulfonyl)acrylonitrile], the MIC is 50 µg/mL (≈ 152 µM) in test [1], 50 µg/mL (≈ 152 µM) in test [2] (24 h), over 1000 µg/mL in test [3] and 20 µg/mL (≈ 60.9 µM) in test [4].

For `N#CC=CS(=O)(=O)c1ccc(NP(=O)(Nc2ccc(S(=O)(=O)C=CC#N)cc2)c2ccccc2)cc1` [Example 58, phenyl-di-[4-(2-cyanoethenesulfonyl)anilido]phosphine oxide], the MIC in test [1] amounted to 20 µg/mL (≈ 37.1 µM); in test [2] (24 h), 10 µg/mL (≈ 18.6 µM); in test [3], 100 µg/mL (≈ 186 µM); in test [4] it was 10 µg/mL (≈ 18.6 µM).

The record behind these values is patent publication US3943154A, “Acylamides of beta-cyano-ethenesulfonyl substituted aminoarenes” (Sanitized Incorporated, priority 1973, dated 1976).
